Literature values in patent US7807616B2, “Geranonitrile substitute” (Henkel AG & Co. KGaA, priority 2004, dated 2010).
Like-named read-outs stand apart in the source and are kept apart here.

Key:
[1] = new findings (BASF, 2003); status 2004
[2] = solution heated at 100° C. for two hours

Row | diphosphate produced by hydrolysis [2] [%] | orthophosphate produced by hydrolysis [2] | amount of the anhydrous salt that dissolves in 100 g of water (at 60°) | amount of the anhydrous salt that dissolves in 100 g of water (at 100°) | amount of the anhydrous salt that dissolves in 100 g of water (room temperature) | SMILES | class under the EU classification criteria (CMR) [1]
1 |  |  |  |  |  | CC(C)=CCCC(C)=CC#N [geranonitrile, 3,7-dimethyl-2,6-octadienenitrile] | category 3 mutagen (M:3)
2 | ~15 | about 8% | about 20 g | around 32 g | About 17 g | O=P([O-])([O-])OP(=O)([O-])OP(=O)([O-])[O-].[Na+].[Na+].[Na+].[Na+].[Na+] [pentasodium triphosphate] | 
